For 15 compounds, GI50 and TGI results are on record in PubChem BioAssay (NCI).

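Cultured in 96-well plates, cells were exposed to test compound for 48 hours across five concentrations. The concentration for 50% growth inhibition is given as GI50. TGI: total growth inhibition.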 Where only a bound is given, the exact number is not on record here.

Experiment in all cases: growth of human tumour cells (NCI), 48 h
For test [1], the system named is MALME-3M melanoma.
Test [2] concerns NCI-H226 lung.
The subject of test [3] is HL-60(TB) leukemia.
The subject of test [4] is HCC-2998 colon.
The test system of test [5] is DU-145 prostate.
Test [6] deals with SF-268 CNS.
The test system of test [7] is NCI-H23 lung.
Test [8] has as its system CAKI-1 renal.
The subject of test [9] is A498 renal.
The subject of test [10] is LOX IMVI melanoma.

In the case of `COc1ccc(-c2noc(C(=O)O)c2-c2cc(OC)c(OC)c(OC)c2)cc1`, the GI50 was 8.02 µM in test [1]; above 100 µM in test [2]; 2.19 µM in [3]; 5.75 µM in test [4]; 3.48 µM in test [5]; 7.63 µM in test [6]. Further, the GI50 in test [7] was 9.17 µM; in [8] it was 2.35 µM; in [9] it was 1.43 µM; in test [10] it was 5.12 µM. Moreover, the TGI was above 100 µM in test [1]; above 100 µM in test [2]; 6.41 µM in test [3]; above 100 µM in test [4]; above 100 µM in test [5]; above 100 µM in [6]. Moreover, the TGI in test [7] was above 100 µM; in test [8] it was above 100 µM; in [9] it was 7.02 µM; in test [10], above 100 µM.
Turning to `CC(=O)c1c(O)c(C)c(O)c(Cc2c(O)c3c(c(C(=O)/C=C/c4ccccc4)c2O)OC(C)(C)C=C3)c1O`, the TGI in test [1] was 12.6 µM; in [2], 23 µM; in [3] it was 26.2 µM; in [4], 11.1 µM; in test [5], 41.1 µM; in test [6] it was 85.7 µM. In addition, the TGI stood at 14 µM in test [7], 9.07 µM in test [8], 6.71 µM in [9] and 14.3 µM in test [10].
`O=S(=O)(Nc1ccc(Br)cc1)c1ccc(-c2cnc(C3CC3)o2)cc1`: the GI50 was 1.66 µM in [1]; 6.26 µM in [2]; 1.47 µM in test [3]; 2.38 µM in [4]; 3.8 µM in test [5]; 5.05 µM in test [6]. For the same compound, the GI50 in test [7] was 2.99 µM; in [8] it was 1.07 µM; in test [9], 0.31 µM; in test [10], 2.41 µM. Further, the TGI came to 17.8 µM in [1]; 25 µM in test [2]; 6.41 µM in [3]; 15.4 µM in test [4]; 17.4 µM in [5]; 22.4 µM in test [6]. The TGI worked out at 15.1 µM in [7], 15.1 µM in test [8], 2.63 µM in [9] and 18 µM in test [10].
`FC(F)(F)c1cccc(-c2nc3nc(Cl)c(Cl)nc3[nH]2)c1`: the TGI in test [1] was 12.5 µM; in test [2] it was 13.5 µM; in test [3], 4.7 µM; in test [4], 8.04 µM; in [5] it was above 100 µM; in test [6], above 65.8 µM. In addition, the TGI in test [7] stood at 14.7 µM; in [8], 11 µM; in [9], 6.12 µM; in test [10], 13.1 µM.
Take `Cc1ccc2cnc(N)c(C#Cc3cc(C(=O)Nc4ccc(CN5CCN(C)CC5)c(C(F)(F)F)c4)cnc3C)c2c1`: the GI50 in test [1] is 0.146 µM; in test [2] it was 0.538 µM; in [3] it was 1.73 µM; in test [4] it was 1.59 µM; in test [5] it was 0.531 µM; in test [6], 0.559 µM. Also, the GI50 is 0.727 µM in test [7], 0.476 µM in [8], 0.837 µM in test [9] and 0.183 µM in test [10]. The TGI was 0.631 µM in [1]; 1.74 µM in test [2]; 6.58 µM in [3]; 8.46 µM in test [4]; 1.14 µM in test [5]; 1.27 µM in test [6]. Also, the TGI in test [7] worked out at 1.82 µM; in test [8], 1.1 µM; in [9], 1.57 µM; in test [10], 0.808 µM.
For the compound `C=C1CCC2C3(C)COC(C)(C)OC3CCC2(C)C1C/C=C1/C(=O)OCC1OC(C)=O` (centres undefined), the GI50 in test [1] was 3.11 µM; in test [2] it was 12.8 µM; in [3] it was 2.55 µM; in test [4], 15.2 µM; in test [5] it was 4.28 µM; in test [6], 5.83 µM. The GI50 in test [7] was 4.34 µM; in test [8] it was 4.92 µM; in [9], 16.6 µM; in test [10], 0.704 µM. For the same compound, the TGI in test [1] was 10.1 µM; in [2], 33.7 µM; in test [3] it was 7.14 µM; in test [4] it was 28.8 µM; in [5], 14 µM; in test [6] it was 17.6 µM. The TGI in test [7] was 16.1 µM; in [8], 13 µM; in [9] it was 31.5 µM; in test [10], 2.46 µM.
In the case of `Cc1c2cnccc2c(C)c2c1c1cc(C#N)ccc1n2C`, the GI50 in test [1] is 0.195 µM; in test [2], 0.112 µM; in test [3], 0.401 µM; in test [4], 0.293 µM; in test [5], 0.208 µM; in test [6], 0.209 µM. In addition, the GI50 is 0.172 µM in [7], 0.0929 µM in [8], 0.11 µM in test [9] and 0.115 µM in test [10]. The TGI amounted to 0.548 µM in test [1]; 0.379 µM in test [2]; 1.77 µM in test [3]; 1.55 µM in test [4]; 0.836 µM in [5]; 1.59 µM in test [6]. Besides, the TGI was 0.649 µM in test [7], 1.34 µM in test [8], 0.285 µM in test [9] and 0.615 µM in test [10].
Regarding `COc1cc2c(c3c1c(=O)c1ccccc1n3C)C=CC1(CCCC1)O2`, the TGI stood at 37.8 µM in test [1]; 37.1 µM in [2]; 26.1 µM in [3]; 37.7 µM in test [4]; 31.6 µM in test [5]; 46.8 µM in test [6]. For the same compound, the TGI stood at 28.6 µM in test [7], 6.33 µM in [8], 31.9 µM in [9] and 27.3 µM in test [10].
Consider `C/C(=N/O)c1cccc(Nc2cc(-n3nnc4ccccc43)nc3ccccc23)c1`, for which the GI50 is 16.8 µM in test [1]; 11.8 µM in [2]; 13.1 µM in test [3]; 10.5 µM in test [4]; 11.6 µM in test [5]; 17.2 µM in [6]. Moreover, the GI50 in test [7] was 15.7 µM; in [8], 16.8 µM; in [9] it was 25 µM; in [10] it was 24.2 µM. Moreover, the TGI in [1] was 48 µM; in test [2], 47.3 µM; in test [3], 49.9 µM; in test [4], 23.2 µM; in test [5] it was 41.3 µM; in test [6], above 64 µM. Further, the TGI in test [7] worked out at 35.5 µM; in [8], 43.5 µM; in [9] it was 55.8 µM; in test [10], 93 µM.
For the compound `Nc1ncn([C@@H]2S[C@H](CO)[C@@H](O)[C@@H]2F)c(=O)n1`, the GI50 was 5.13 µM in test [1]; 9.99 µM in [2]; 0.571 µM in test [3]; 1.84 µM in [4]; 0.508 µM in test [5]; 4.28 µM in test [6]. The GI50 in [7] is 0.347 µM; in test [8] it was 0.322 µM; in test [9] it was 0.267 µM; in [10] it was 1.16 µM. Further, the TGI in test [1] was above 100 µM; in [2], above 100 µM; in test [3], above 31.5 µM; in test [4] it was above 100 µM; in test [5], above 100 µM; in test [6], above 100 µM. The TGI in [7], in test [8] and in test [10] was above 100 µM in each case.
On to `CC1=C([Se]CC(OC(=O)CC[Se]c2ccccc2)C(=O)NC(C)(C)C)C(=O)c2ccccc2C1=O` (centres undefined), for which the GI50 is 2.1 µM in [1]; 2 µM in test [2]; 1.07 µM in test [3]; 1.76 µM in test [4]; 1.97 µM in test [5]; 1.76 µM in test [6]. The GI50 is 1.56 µM in test [7], 2.37 µM in test [8], 2.82 µM in test [9] and 1.94 µM in test [10]. For the same compound, the TGI in test [1] stood at 4.46 µM; in [2], 4.56 µM; in [3], 2.92 µM; in [4], 3.2 µM; in test [5], 3.6 µM; in test [6], 3.29 µM. Further, the TGI in test [7] was determined as 3.11 µM; in [8], 4.58 µM; in test [9] it was 6.42 µM; in [10] it was 4.7 µM.
On to `CN(C)c1cc2ccccc2oc1=O`, for which the TGI in test [1], in [2], in test [3], in test [4], in test [5] and in test [6] was above 100 µM in each case. For the same compound, the TGI in [7], in test [8], in test [9] and in [10] was above 100 µM throughout.
Regarding `O=C(c1ccc2ccccc2c1)c1c(C(F)(F)F)n([O-])c2ccc(C(F)(F)F)cc2[n+]1=O`, the GI50 was 1.2 µM in [1]; 1.06 µM in [2]; 0.639 µM in test [3]; 1.69 µM in test [4]; 0.738 µM in [5]; 0.783 µM in test [6]. Moreover, the GI50 is 3.4 µM in [7], 0.28 µM in test [8], 0.757 µM in test [9] and 0.191 µM in [10]. The TGI was 2.71 µM in test [1]; 3.35 µM in test [2]; 2.2 µM in test [3]; 3.27 µM in test [4]; 2 µM in [5]; 2.37 µM in test [6]. Also, the TGI in [7] was 10.2 µM; in test [8], 0.73 µM; in test [9] it was 1.97 µM; in [10], 0.363 µM.
With `O=C1/C(=C/c2ccc([N+](=O)[O-])cc2)CN(C(=O)CCN2CCC(=NO)CC2)C/C1=C\c1ccc([N+](=O)[O-])cc1`, the GI50 in [1] is 2.04 µM; in test [2], 2.03 µM; in test [3] it was 1.85 µM; in test [4], 1 µM; in [5], 1.61 µM; in test [6] it was 1.07 µM. In addition, the GI50 in test [7] was 1.53 µM; in [8], 0.756 µM; in [9], 1.75 µM; in test [10] it was 0.296 µM. Besides, the TGI in test [1] stood at 6.9 µM; in test [2] it was 5.41 µM; in test [3], 6.88 µM; in test [4] it was 2.62 µM; in test [5] it was 4.65 µM; in [6], 6.01 µM. In addition, the TGI in test [7] amounted to 4.58 µM; in test [8] it was 2.39 µM; in [9] it was 3.95 µM; in test [10], 0.739 µM.
Consider `C/C(CC(O)(C(F)(F)F)C(F)(F)F)=N\NC(N)=O`, for which the TGI in test [1], in test [2], in test [3], in [4], in test [5] and in test [6] was above 10 µM in each case. The TGI in [7], in test [8], in [9] and in test [10] was above 10 µM each time.
